Among the data in ChEMBL document CHEMBL1128974, “Design, synthesis and X-ray crystallographic studies of [7.3.1] and [8.3.1] macrocyclic FKBP-12 ligands” (Bioorg Med Chem Lett, 1996) are Ki values, retold here.

The term pKi denotes the negative decadic logarithm of the Ki, by convention in mol/L. Lower therefore signals a high Ki.

The structures appear in SMILES notation. pKi: −log10 of the molar value.

In the first assay the target is T1, Peptidyl-prolyl cis-trans isomerase FKBP1A (Homo sapiens, UniProt P62942). Nature of the assay: Compound was evaluated for inhibitory activity against human FKBP-12 rotamase; no inhibition.
T1 sequence (P62942 whole entry): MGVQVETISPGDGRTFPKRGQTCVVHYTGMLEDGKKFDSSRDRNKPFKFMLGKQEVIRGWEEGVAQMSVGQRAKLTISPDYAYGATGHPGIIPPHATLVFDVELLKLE
For `CO[C@@H](CC(C)C)[C@@H]1CC[C@@H](C)[C@](O)(C(=O)C(=O)N2[C@@H]3CCC[C@H]2C(=O)OCC(CO)COC3=O)C1` (stereo not given in full), the Ki entry is listed as “Not Active”.
In the case of `CO[C@@H](CC(C)C)[C@@H]1CC[C@@H](C)[C@](O)(C(=O)C(=O)N2[C@@H]3CCC[C@H]2C(=O)OCC(COCc2ccccc2)COC3=O)C1` (stereo not given in full), the Ki entry is on record as “Not Active”.
As to `COCC(C)[C@@H]1CC[C@@H](C)[C@](O)(C(=O)C(=O)N2[C@@H]3CCC[C@H]2C(=O)OCC(COCc2ccccc2)COC3=O)C1` (stereo not given in full), the Ki entry is on record as “Not Active”.

The target in the next assay is T1, Peptidyl-prolyl cis-trans isomerase FKBP1A. The assay can be described thus: Compound was evaluated for inhibitory activity against human FKBP-12 rotamase.
Take `COc1cc(C(=O)C(=O)N2[C@@H]3CCC[C@H]2C(=O)OCCCCOC3=O)cc(OC)c1OC`: the pKi is 6.55.
Molecule `CCC(C)(C)C(=O)C(=O)N1[C@@H]2CCC[C@H]1C(=O)OCCCOC2=O` had a pKi of 5.00.
The molecule `COc1cc(C(=O)C(=O)N2[C@@H]3CCC[C@H]2C(=O)OCC(CO[Si](C)(C)C(C)(C)C)COC3=O)cc(OC)c1OC` (stereo not given in full) showed a pKi of 5.82. This pKi is 0.82 log units higher than that of the molecule before.
In turn, `COCC(C)[C@@H]1CC[C@@H](C)[C@](O)(C(=O)C(=O)N2[C@@H]3CCC[C@H]2C(=O)OCC(CO)COC3=O)C1` (stereo not given in full) had a pKi of less than 4.30.
The same measure, in the same setting: in the case of `CC(C)[C@@H]1CC[C@@H](C)[C@](O)(C(=O)C(=O)N2[C@@H]3CCC[C@H]2C(=O)OCCCOC3=O)C1` it was 5.09; in that of `COc1cc(C(=O)C(=O)N2[C@@H]3CCC[C@H]2C(=O)OCC(COCc2ccccc2)COC3=O)cc(OC)c1OC` (stereo not given in full), 5.92.
In turn, `CCC(C)(C)C(=O)C(=O)N1[C@@H]2CCC[C@H]1C(=O)OCCCCOC2=O` gave a pKi of 5.08.
